{
  "source": "patent US10561704B2",
  "about": "“Compositions and methods for treating neuropsychiatric disorders using an endothelin-B receptor agonist” (MIDWESTERN UNIVERSITY, priority 2013, dated 2020)",
  "key": {"[1]": {"tested_on": "middle cerebral artery occluded rats", "experiment": "Angiogenesis and neurogenesis markers (ETB, NeuN, BrdU, VEGF, NGF) following cerebral ischemia", "assay_type": "in vivo", "procedure": "FIG. 16: Effect of ETB receptor agonist, IRL-1620 (three doses of 5 μg/kg, i.v., at 2, 4 and 6 h post ischemia), and antagonist, BQ788 (1 mg/kg, i.v.), on neuronal nuclei (NeuN) post middle cerebral artery occlusion. (A) Representative image of the cortex of an IRL-1620-treated animal 1 week following MCAO, stained for the ETB receptor (green) and NeuN (red). Scale bar=100 μm. (B) Representative image of the striatum of an IRL-1620-treated animal 1 week following MCAO, stained for the ETB receptor (green) and NeuN (red). Scale bar=10 μm. (C) Number of neuronal nuclei per 100 μm^2 in the cortex, striatum, and subventricular zone of middle cerebral artery occluded rats at 24 h after infarct. *P<0.05 vs. sham. ^#P<0.01 vs. MCAO+vehicle. ^@P<0.0001 vs. MCAO+IRL-1620. (D) Number of neuronal nuclei per 100 μm^2 in the cortex, striatum, and subventricular zone of middle cerebral artery occluded rats at 1 week after infarct. Values are expressed as mean±SEM (n=5/group). *P<0.0001 vs. sham. ^#P<0.0001 vs. MCAO+vehicle. ^@P<0.0001 vs. MCAO+IRL-1620.\nFIG. 17: Effect of ETB receptor agonist, IRL-1620 (3 doses of 5 μg/kg, i.v., at 2, 4 and 6 hours post ischemia), and antagonist, BQ788 (1 mg/kg, i.v.), on proliferating cells post middle cerebral artery occlusion. Representative image of the cortex of an IRL-1620-treated animal 1 week following MCAO depicting a cerebral blood vessel, stained for the ETB receptor (green) and BrdU (red). Scale bar=100 μm. […] Values are expressed as mean±SEM (n=5/group). *P<0.01 vs. sham. #P<0.0001 vs. MCAO+vehicle. @P<0.0001 vs. MCAO+IRL-1620.\nFIG. 19: Effect of ETB receptor agonist, IRL-1620 (3 doses of 5 μg/kg, i.v., at 2, 4 and 6 hours post ischemia), and antagonist, BQ788 (1 mg/kg, i.v.), on vascular endothelial growth factor (VEGF) post middle cerebral artery occlusion. […] Values are expressed as mean±SEM (n=5/group). *P<0.01 vs. sham. #P<0.01 vs. MCAO+vehicle. @P<0.05 vs. MCAO+IRL-1620.\nFIG. 21: Effect of ETB receptor agonist, IRL-1620 (3 doses of 5 μg/kg, i.v., at 2, 4 and 6 hours post ischemia), and antagonist, BQ788 (1 mg/kg, i.v.), on nerve growth factor (NGF) post middle cerebral artery occlusion. A. Representative image of the cortex of an IRL-1620-treated animal 1 week following MCAO, stained for the ETB receptor (green) and NGF (red). Scale bar=10 μm. B. Number of NGF+cells per 100 μm^2 in the cortex, striatum, and subventricular zone of middle cerebral artery occluded rats at 1 week after infarct. Values are expressed as mean±SEM (n=5/group). #P<0.0001 vs. MCAO+vehicle. @P<0.0001 vs. MCAO+IRL-1620.\nEffect of IRL-1620 on angiogenesis and neurogenesis following cerebral ischemia in rats: Angiogenesis and neurogenesis are the driving forces for the neurovascular remodeling that is essential post-stroke to restore normal brain function (Hawkins and Davis, 2005). VEGF is an endogenous protein known for its ability to promote angiogenesis and enhance vascular permeability. Under hypoxic conditions such as cerebral ischemia, VEGF expression is induced in neurons, astrocytes and endothelial cells via hypoxia-inducible factor-1 (HIF-1) (Breier and Risau, 1996). Once expressed, VEGF initiates both direct and indirect neuroprotective actions, inhibiting apoptosis, stimulating neurogenesis and angiogenesis, increasing glucose uptake and activating antioxidants (Gora-Kupilas and Josko, 2005). It has been shown that intracerebroventricular (i.c.v.) administration of an ETB receptor agonist in normal rats stimulates production of VEGF and activates VEGF receptors in the brain, while, in cultured astrocytes, this agonist increases VEGF-A mRNA as well as BrdU incorporation (Koyama et al., 2012; Koyama et al., 2011). ETB receptor agonist, IRL-1620, has been shown in our previous studies, to provide significant neuroprotection at both 24 hours and 1 week following permanent cerebral ischemia. […]"}, "[2]": {"tested_on": "middle cerebral artery occluded rats", "experiment": "Infarct volume and edema 7 days post middle cerebral artery occlusion", "assay_type": "in vivo", "procedure": "FIG. 12: Two mm coronal sections of brains stained with TTC to visualize the infarct area 7 days post middle cerebral artery occlusion (red indicates normal tissue and white indicates infarct tissue). Representative slices from groups are shown. IRL-1620 (5 μg/kg, IV) or isotonic saline (1 ml/kg, IV) was injected at 2, 4, and 6 hr post MCAO. BQ-788 (1 mg/kg, IV) was administered once 15 min prior to the first injection of IRL-1620 or vehicle."}},
  "note": "*1 amine or outer side, *2 acyl side, *3 side chain or, on linkers, in order; H or OH if unused. Where no end group is shown, it is not given here. Suc = O=C(CCC(=O)[*:2])[*:1]",
  "data": [
    {"compound": "Suc-Asp-Glu-Glu-Ala-Val-Tyr-Phe-Ala-His-Leu-Asp-Ile-Ile-Trp (Suc-DEEAVYFAHLDIIW) [IRL-1620]", "values": [
      {"measurement": "Number of proliferating cells in the infarcted brain", "setting": "[1]; 1 week after MCAO", "value": "increased number"},
      {"measurement": "VEGF-positive vessels/30 μm brain slice", "setting": "[1]; 1 week following MCAO", "value": "11.33±2.13"},
      {"measurement": "ETB receptor expression in cortex, striatum and SVZ", "setting": "[1]; 24 hours post occlusion", "value": "increased"},
      {"measurement": "Neuronal numbers in cortex, striatum and SVZ", "setting": "[1]; 24 hours post occlusion", "value": "preserved"},
      {"measurement": "Number of blood vessels labeled with VEGF", "setting": "[1]; 24 hours post occlusion, vs vehicle treatment", "value": "enhanced"},
      {"measurement": "NGF-positive cells per 100 μm^2", "setting": "[1]; SVZ, 1 week after MCAO", "value": "3.05±0.38", "unit": "per 100 μm^2"},
      {"measurement": "NGF-positive cells per 100 μm^2", "setting": "[1]; cortex, 1 week after MCAO", "value": "2.29±0.31", "unit": "per 100 μm^2"},
      {"measurement": "NGF-positive cells per 100 μm^2", "setting": "[1]; striatum, 1 week after MCAO", "value": "2.08±0.26", "unit": "per 100 μm^2"},
      {"measurement": "Edema: infarcted hemisphere larger than non-infarcted hemisphere", "setting": "[2]; MCAO 7 days", "value": "1.51±1.81", "unit": "%"},
      {"measurement": "Infarct volume", "setting": "[2]; MCAO for 7 days, IRL-1620 5 μg/kg IV at 2, 4, 6 hr post MCAO", "value": "54.06±14.12", "unit": "mm^3"},
      {"measurement": "Reduction of infarct volume", "setting": "[2]; chronic study, 1 week (Leonard et al., 2012)", "value": 69.49, "unit": "%"}
    ]},
    {"compound": "CCCC[C@@H](NC(=O)[C@@H](Cc1cn(C(=O)OC)c2ccccc12)NC(=O)[C@H](CC(C)(C)C)NC(=O)N1[C@H](C)CCC[C@@H]1C)C(=O)O", "note": "[BQ788, reference compound]", "values": [
      {"measurement": "Effects of IRL-1620 treatment (neurovascular remodeling)", "setting": "[1]; pretreatment with BQ-788", "value": "blocked"},
      {"measurement": "Edema", "setting": "[2]; MCAO 7 days, BQ-788 followed by IRL-1620", "value": "17.97±5.17", "unit": "%"},
      {"measurement": "Edema", "setting": "[2]; MCAO 7 days, BQ-788 followed by vehicle", "value": "17.02±3.17", "unit": "%"},
      {"measurement": "Infarct volume", "setting": "[2]; MCAO 7 days, BQ-788 given with either vehicle or IRL-1620", "value": "did not reduce"}
    ]}
  ]
}
